Test results reported in patent publication US20130324597A1, “PHARMACEUTICAL COMPOSITION COMPRISING TRANS-[…] AND ITS USE IN THE TREATMENT OF INFECTIONS” (priority 2010, published 2013).

Assays:
VIH = assay: Activity on VIH (survival of lymphoid cells T4, P24 dosage); format: cell-based; set-up: unit of the concentration uncertain
all the strains = assay: MIC of pure components, all strains of Table 9; format: cell-based; conditions: strains of Table 9, tested concentrations
Text: (§1) Following a method allowing the dissolution of the active blend in a Mueller Hinton gelose the MIC has been measured with pure components of the active blends 1 to 9.

Enterobacteriaceae = assay: MIC of pure components in Mueller Hinton gelose; format: cell-based; conditions: Enterobacteriaceae n = 13
Text: as §1

[1] = tested on: Staphylococcus And Enterococcus; assay: MIC of pure components in Mueller Hinton gelose; format: cell-based; conditions: Staphylococcus And Enterococcus n = 14
Text: as §1

Other Gram - rods = assay: MIC of pure components in Mueller Hinton gelose; format: cell-based; conditions: Other Gram - rods n = 15
Text: as §1

[2] = tested on: Staphylococcus aureus, methicilline resistant; assay: Treatment of infected mice; format: in vivo, Balb/c mice; conditions: MRSA challenge, 10 days observation; reference antibiotic, dose not given
Protocol: (§2) The test is performed on Balb/c mice aged 10 to 12 weeks.
(§3) They are infected by intraperitoneal injection of 4.10^7 Staphylococcus aureus, methicilline resistant, in a growing phase or with E. coli.

E. coli = assay: Treatment of infected mice; format: in vivo; conditions: E. coli challenge, 7 days observation; reference antibiotic, dose not given
Protocol: as §2, §3

[3] = concentration 0.0005 (unit uncertain)
[4] = concentration 0.005 (unit uncertain)
[5] = concentration 0.05 (unit uncertain)
[6] = concentration 0.1 (unit uncertain)
[7] = concentration 0.5 (unit uncertain)
[8] = concentration 5 (unit uncertain)

Compound: Cc1cn([C@H]2C[C@H](N=[N+]=[N-])[C@@H](CO)O2)c(=O)[nH]c1=O [AZT]
- % Survival (lymphoid cells T4) (VIH; [3]): 10.0%
- Dosage P24 (% inhibition vs T+ of the plate) (VIH; [3]): 39%
- % Survival (lymphoid cells T4) (VIH; [4]): 7.0%
- Dosage P24 (% inhibition vs T+ of the plate) (VIH; [4]): 48%
- % Survival (lymphoid cells T4) (VIH; [5]): 36.0%
- Dosage P24 (% inhibition vs T+ of the plate) (VIH; [5]): 80%
- % Survival (lymphoid cells T4) (VIH; [6]): 86.0%
- Dosage P24 (% inhibition vs T+ of the plate) (VIH; [6]): 99%
- % Survival (lymphoid cells T4) (VIH; [7]): 97.8%
- Dosage P24 (% inhibition vs T+ of the plate) (VIH; [7]): 100%
- % Survival (lymphoid cells T4) (VIH; [8]): 108.7%
- Dosage P24 (% inhibition vs T+ of the plate) (VIH; [8]): 100%

Compound: C=C1CC/C=C(\C)CC[C@@H]2[C@@H]1CC2(C)C [Caryophyllene, beta-caryophyllene]
- activity / spectrum in words (all the strains): narrow
- MIC 50 (Enterobacteriaceae): > 10000 µg/mL
- MIC 90 (Enterobacteriaceae): > 10000 µg/mL
- MIC Range (Enterobacteriaceae): > 10000 µg/mL
- MIC 50 [1]: > 10000 µg/mL
- MIC 90 [1]: > 10000 µg/mL
- MIC 50 (Other Gram - rods): > 10000 µg/mL
- MIC 90 (Other Gram - rods): > 10000 µg/mL
- MIC Range (Other Gram - rods): > 10000 µg/mL

Compound: CN[C@H](CC(C)C)C(=O)N[C@H]1C(=O)N[C@@H](CC(N)=O)C(=O)N[C@H]2C(=O)N[C@H]3C(=O)N[C@H](C(=O)N[C@H](C(=O)O)c4cc(O)cc(O)c4-c4cc3ccc4O)[C@H](O)c3ccc(c(Cl)c3)Oc3cc2cc(c3O[C@@H]2O[C@H](CO)[C@@H](O)[C@H](O)[C@H]2O[C@H]2C[C@](C)(N)[C@H](O)[C@H](C)O2)Oc2ccc(cc2Cl)[C@H]1O [Vancomicin]
- % survival [2]: 100%
- Final score [2]: 10
- Final score, % vs placebo [2]: 42.86%
- Total weight [2]: 1110
- Total weight, % vs placebo [2]: 0.63%

Compound: CC12CCC(CC1)C(C)(C)O2 [Cineole, cineole]
- MIC Range (Enterobacteriaceae): > 10000 µg/mL
- MIC Range [1]: > 10000 µg/mL
- MIC Range (Other Gram - rods): > 10000 µg/mL

Compound: CC1(C)S[C@@H]2[C@H](NC(=O)[C@H](N)c3ccc(O)cc3)C(=O)N2[C@H]1C(=O)O [Amoxicillin]
- % survival (E. coli): 100%
- Final score (E. coli): 6
- Final score, % vs placebo (E. coli): 10.70%
- Total health score (E. coli): 678
- Total health score, % vs placebo (E. coli): 38.93%
- Total weight (E. coli): 849
- Total weight, % vs placebo (E. coli): 23.58%
